According to patent US20040005537A1, “Method of identifying toxic agents using differential gene expression” (priority 2000, published 2004):

Test system: rat heart tissue
Test: GENECALLING differential gene expression analysis after dosing of serotonin modulating agents
Type: in vivo, Sprague Dawley rats
Method in brief: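 Rats dosed with serotonin modulating agents, controls given sterile water or canola oil; tissue taken 24 h after the last dose. Total RNA converted to cDNA and profiled by GENECALLING differential expression analysis; fragments changed more than ±1.5-fold were selected.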

Question: With `CCNC(C)Cc1cccc(C(F)(F)F)c1` (stereo not shown) [fenfluramine] as the compound, how does the “Effects on Transcription Level: Novel gene fragment, 524 bp, 86% SI to mouse F-box protein FBX6b [AF176526]” value (CARDIOTOX 1) read?
Answer: +1.4 fold

Question: What about the “Effects on Transcription Level: Novel gene fragment, 306 bp, 91% SI to mouse low density lipoprotein receptor related protein 4 [AB013874]” value (CARDIOTOX 2) of the same compound?
Answer: −1.1 fold

Question: And the “Effects on Transcription Level: Novel gene fragment, 540 bp, 97% SI to mouse skeletal muscle alpha-actin [X03766]” value (CARDIOTOX 3)?
Answer: +1.3 fold

Question: What about the “Effects on Transcription Level: Novel gene fragment, 80 bp” value (CARDIOTOX 4) of the same compound?
Answer: −1.1 fold

Question: What about the “Effects on Transcription Level: Novel gene fragment, 957 bp, 99% SI to kidney injury associated moleculer HW036 [V80591]” value (CARDIOTOX 5) of the same compound?
Answer: −1.4 fold

Question: And the “Effects on Transcription Level: Novel gene fragment, 282 bp, 85% SI to human KIAA1515 protein [AB040948]” value (CARDIOTOX 6)?
Answer: −1.3 fold

Question: What about the “Effects on Transcription Level: Novel gene fragment, 405 bp, 88% SI to human 2-oxoglutarate dehydrogenase [D10523]” value (CARDIOTOX 7) of the same compound?
Answer: +1.4 fold

Question: What about the “Effects on Transcription Level: UCP2” value (CARDIOTOX 8, GenBank AB010743) of the same compound?
Answer: −1.3 fold

Question: What about the “Effects on Transcription Level: Plasma membrane Ca2 + ATPase-isoform 1” value (CARDIOTOX 9, GenBank J03753) of the same compound?
Answer: −1.3 fold

Question: And the “Effects on Transcription Level: Novel gene fragment, 242 bp, 97% SI to mouse HSP86 heat-shock protein [X16857]” value (CARDIOTOX 10)?
Answer: +1.6 fold

Question: What about the “Effects on Transcription Level: Novel gene fragment, 280 bp, 65% SI to human TRF1-interacting, ankyrin-related ADP-ribose polymerase [AF082556]” value (CARDIOTOX 11) of the same compound?
Answer: +1.6 fold

Question: And the “Effects on Transcription Level: Novel gene fragment, 348 bp, 88% SI to mouse Sec61 protein complex gamma subunit [U11027]” value (CARDIOTOX 12)?
Answer: +1.6 fold

Question: What about the “Effects on Transcription Level: Novel gene fragment 553 bp, 93% SI to mouse Sid329 [AB024984]” value (CARDIOTOX 13) of the same compound?
Answer: +1.5 fold

Question: And the “Effects on Transcription Level: Kruppel-like transcription factor” value (CARDIOTOX 14, GenBank AB020759)?
Answer: +1.7 fold

Question: What about the “Effects on Transcription Level: Ribosomal protein L3” value (CARDIOTOX 15, GenBank X62166) of the same compound?
Answer: +2.3 fold

Question: What about the “Effects on Transcription Level: Glucose-regulated protein (GRP) 75” value (CARDIOTOX 16, GenBank S78556) of the same compound?
Answer: +1.5 fold

Question: What about the “Effects on Transcription Level: Immunoglobulin heavy chain binding protein (BiP)” value (CARDIOTOX 17, GenBank M14050) of the same compound?
Answer: +2.0 fold

Question: And the “Effects on Transcription Level: Membrane-spannining proteoglycan NG2” value (CARDIOTOX 18, GenBank X56541)?
Answer: −1.5 fold

Question: What about the “Effects on Transcription Level: Novel gene fragment, 1294 bp, 96% SI to mouse Sui 1 (elF) homolog [AF129888]” value (CARDIOTOX 19) of the same compound?
Answer: +1.6 fold

Question: What about the “Effects on Transcription Level: Novel gene fragment, 723 bp, 85% SI to human translation initiation factor elF3 p40 subunit [U54559]” value (CARDIOTOX 20) of the same compound?
Answer: +1.5 fold

Question: What about the “Effects on Transcription Level: Novel gene fragment, 1324 bp, 76% SI to human flavoprotein subunit of complex II [D30648]” value (CARDIOTOX 21) of the same compound?
Answer: +1.5 fold

Question: And the “Effects on Transcription Level: Novel gene fragment, 852 bp, 81% SI to human vacuolar proton-ATPase subunit M9.2 [Y15286]” value (CARDIOTOX 22)?
Answer: +1.6 fold

Question: What about the “Effects on Transcription Level: Novel gene fragment, 178 bp, 91% SI to mouse myosin light chain-2 isoform MLC-2a [S70785]” value (CARDIOTOX 23) of the same compound?
Answer: +1.5 fold

Question: What about the “Effects on Transcription Level: Novel gene fragment, 167 bp, 90% SI to mouse Rab20 [X80332]” value (CARDIOTOX 24) of the same compound?
Answer: +1.8 fold

Question: And the “Effects on Transcription Level: Novel gene fragment, 1070 bp, 80% SI to human muscle-specific protein [AF249873]” value (CARDIOTOX 25)?
Answer: +1.7 fold

Question: And the “Effects on Transcription Level: Novel gene fragment, 1143 bp, 82% SI to human sarcoma amplified sequence (SAS) [U01160]” value (CARDIOTOX 26)?
Answer: +1.8 fold

Question: And the “Effects on Transcription Level: Novel gene fragment, 74 bp,75% SI to human secreted protein [X30160] (from patent database)/[X97578] (from patent database)/potential cytokine)” value (CARDIOTOX 27)?
Answer: +1.6 fold

Question: And the “Effects on Transcription Level: Novel gene fragment, 408 bp, 90% SI to human CGI-07 protein [AF132941]” value (CARDIOTOX 28)?
Answer: +1.6 fold

Question: What about the “Effects on Transcription Level: Novel gene fragment, 618 bp, 95% SI to rat progression related cDNA, ZNPE-120 3′ end partial sequence [patent database X90805]” value (CARDIOTOX 29) of the same compound?
Answer: +1.6 fold

Question: And the “Effects on Transcription Level: Novel gene fragment, 717 bp” value (CARDIOTOX 30)?
Answer: +1.6 fold

Question: And the “Effects on Transcription Level: Novel gene fragment, 546 bp” value (CARDIOTOX 31)?
Answer: +1.5 fold

Question: And the “Effects on Transcription Level: Novel gene fragment, 920 bp, 91% SI to human HSPC061 [AF161546]” value (CARDIOTOX 32)?
Answer: +1.5 fold

Question: What about the “Effects on Transcription Level: Novel gene fragment, 203 bp, 92% SI to rabbit sarcoplasmic reticulum glycoprotein [J04480]” value (CARDIOTOX 33) of the same compound?
Answer: −1.7 fold

Question: And the “Effects on Transcription Level: Novel gene fragment, 178 bp, 68% SI to mouse IgG receptor (beta-Fc-gamma-RII)[M63159]” value (CARDIOTOX 34)?
Answer: +1.5 fold

Question: What about the “Effects on Transcription Level: Ribosomal protein L6” value (CARDIOTOX 35, GenBank X87107) of the same compound?
Answer: +1.5 fold

Question: What about the “Effects on Transcription Level: CAP2 protein (adenylyl cyclase-associated protein 2)” value (CARDIOTOX 36, GenBank U31935) of the same compound?
Answer: +2.0 fold

Question: And the “Effects on Transcription Level: Alpha-platelet-derived growth factor receptor” value (CARDIOTOX 37, GenBank M63837)?
Answer: +1.5 fold

Question: What about the “Effects on Transcription Level: Rab GD1 alpha protein” value (CARDIOTOX 38, GenBank X74402) of the same compound?
Answer: −1.5 fold

Question: What about the “Effects on Transcription Level: PKC-zeta-interacting protein” value (CARDIOTOX 39, GenBank Y08355) of the same compound?
Answer: +1.5 fold

Question: What about the “Effects on Transcription Level: ERK or MAP kinase” value (CARDIOTOX 40, GenBank X65198) of the same compound?
Answer: +1.5 fold

Question: And the “Effects on Transcription Level: Peroxisomal multifunctional enzyme type II” value (CARDIOTOX 41, GenBank U37486)?
Answer: +1.5 fold

Question: And the “Effects on Transcription Level: HBP23 (heme-binding protein 23 kDa)” value (CARDIOTOX 42, GenBank D30035)?
Answer: +1.6 fold

Question: And the “Effects on Transcription Level: Caveolae-associated protein” value (CARDIOTOX 43, GenBank U90725)?
Answer: +1.5 fold

Question: And the “Effects on Transcription Level: Prenylated rab acceptor 1 (PRA1)” value (CARDIOTOX 44, GenBank AF025506)?
Answer: +1.6 fold

Question: What about the “Effects on Transcription Level: Novel gene fragment, 337 bp, 88% SI to rabbit cardiac ryanodine receptor (RyR-2)[U50465]” value (CARDIOTOX 45) of the same compound?
Answer: −1.6 fold

Question: What about the “Effects on Transcription Level: Novel gene fragment, 81 bp, 85% SI to human titin [X90568]” value (CARDIOTOX 46) of the same compound?
Answer: −1.8 fold

Question: And the “Effects on Transcription Level: Novel gene fragment, 428 bp, 86% SI to human titin [X90568]” value (CARDIOTOX 47)?
Answer: −1.8 fold

Question: What about the “Effects on Transcription Level: Novel gene fragment, 374 bp, 88% SI to human titin [X90568]” value (CARDIOTOX 48) of the same compound?
Answer: −1.8 fold

Question: What about the “Effects on Transcription Level: Novel gene fragment, 428 bp, 85% SI to human titin [90568]” value (CARDIOTOX 49) of the same compound?
Answer: −1.9 fold

Question: What about the “Effects on Transcription Level: Novel gene fragment, 1216 bp, 93% SI to mouse mircotubule-associated protein (MAP) 1B protein [AF115776]” value (CARDIOTOX 50) of the same compound?
Answer: −1.7 fold

Question: And the “Effects on Transcription Level: Novel gene fragment, 1115 bp, 83% SI to human KIAA0549 protein [AB011121]” value (CARDIOTOX 51)?
Answer: −1.8 fold

Question: And the “Effects on Transcription Level: Novel gene fragment, 153 bp” value (CARDIOTOX 52)?
Answer: −1.7 fold

Question: And the “Effects on Transcription Level: Novel gene fragment, 89 bp, 93% SI to human putative glialblastoma cell differentiation-related protein (GBDR1) [AF068195]” value (CARDIOTOX 53)?
Answer: −1.6 fold

Question: And the “Effects on Transcription Level: Rho-associated kinase beta” value (CARDIOTOX 54, GenBank U61266)?
Answer: −1.8 fold

Question: What about the “Effects on Transcription Level: Adenylate kinase 3” value (CARDIOTOX 55, GenBank D13062) of the same compound?
Answer: +1.6 fold

Question: What about the “Effects on Transcription Level: Amyloid beta-peptide binding protein” value (CARDIOTOX 56, GenBank AF049878) of the same compound?
Answer: +1.6 fold

Question: And the “Effects on Transcription Level: Mitochondrial adenine nuleotide translocator” value (CARDIOTOX 57, GenBank D12771)?
Answer: +1.6 fold

Question: What about the “Effects on Transcription Level: Novel gene fragment, 710 bp, 94% SI to mouse chromatin structural protein homolog Supt5 hp (Supt5 h)[U88539]” value (CARDIOTOX 58) of the same compound?
Answer: +3.4 fold

Question: What about the “Effects on Transcription Level: Novel gene fragment, 186 bp, 66% SI to human N-acetylglucosaminyltransferase 1 (GlcNAc-TI)[M55621]” value (CARDIOTOX 60) of the same compound?
Answer: −3.0 fold

Question: And the “Effects on Transcription Level: Novel gene fragment, 238 bp, 95% SI to mouse MAP kinase-activated protein kinase 2 [X76850]” value (CARDIOTOX 61)?
Answer: −2.4 fold

Question: And the “Effects on Transcription Level: Novel gene fragment, 173 bp, 70% SI to G protein-coupled receptor kinase GRK4 [X97568]” value (CARDIOTOX 62)?
Answer: −6.6 fold

Question: And the “Effects on Transcription Level: Novel gene fragment, 133 bp, 77% SI to human apoptosis related protein hSARP3 [patent database: V19114]” value (CARDIOTOX 63)?
Answer: −3.1 fold

Question: And the “Effects on Transcription Level: Novel gene fragment, 477 bp, 98% SI to peroxisomal phytanoyl-CoA hydroxylase (PHYH) [AF121345]” value (CARDIOTOX 64)?
Answer: +4.8 fold

Question: And the “Effects on Transcription Level: Novel gene fragment, 413 bp, 95% SI to mouse dihydrolipoamide dehydrogenase (Dld) [U73445]” value (CARDIOTOX 65)?
Answer: +2.3 fold

Question: What about the “Effects on Transcription Level: Novel gene fragment, 726 bp, 76% SI to human succinate dehydrogenase flavoprotein subunit (SDH) [L21936]” value (CARDIOTOX 66) of the same compound?
Answer: −4.0 fold

Question: And the “Effects on Transcription Level: Novel gene fragment, 440 bp, 92% SI to mouse cytochrome c oxidase Vllc [X52940]” value (CARDIOTOX 67)?
Answer: +4.0 fold

Question: And the “Effects on Transcription Level: Novel gene fragment, 276 bp, 80% SI to human titin [X90568]” value (CARDIOTOX 68)?
Answer: −12.7 fold

Question: And the “Effects on Transcription Level: Novel gene fragment, 149 bp, 70% SI to human titin [X90568]” value (CARDIOTOX 69)?
Answer: −5.6 fold

Question: And the “Effects on Transcription Level: Novel gene fragment, 467 bp, 94% SI to mouse gelsolin [J04953]” value (CARDIOTOX 70)?
Answer: −3.6 fold

Question: What about the “Effects on Transcription Level: Novel gene fragment, 535 bp, 90% SI to mouse slow/cardiac troponin C [M29793]” value (CARDIOTOX 71) of the same compound?
Answer: −3.7 fold
